Test results published in patent US7420033B2, “Composition of lactoferrin related peptides and uses thereof” (Agennix, Inc., priority 2004, dated 2008).
Several values for one entry are separate records, joined by “and”; a condition that tells them apart may be missing. Equal entries are not always repeated. Where no end group is shown, it is not given here.

How the values were obtained:
[1] = test system: clinical bacterial isolates; assay: Peptide MICs by NCCLS broth microdilution; assay type: cell-based; settings: geometric mean MIC; 742 clinical bacterial isolates representing 35 species
Method: The novel peptides described in this application have shown substantial anti-microbial activity. Peptide MICs were determined by the broth microdilution method recommended by the NCCLS (M7-A5). In each medium, the concentrations of peptide were serial two-fold dilutions ranging from 8192 to 8 μg/mL. Mueller-Hinton broth and Peptone broth were used throughout, using the following media: 1) 5rCAMHB, 2) CAMHB supplemented with 3% lysed horse blood, 3) Haemophilus test medium, 4) peptone broth at pH 7, 5) peptone broth at pH 7.5, 6) peptone broth supplemented with 25 μg/mL calcium and 12.5 μg/mL magnesium, 7) peptone broth supplemented with 1.5 g/L soluble starch. On each day of testing, colony counts were performed on the broth from the growth control well immediately after inoculation from two randomly selected isolates to assure appropriate inoculum density. A total of 742 clinical bacterial isolates representing 35 species were tested.

[2] = test system: MIP3-α; assay: MIP3-α expression in hepatocytes, ELISA; assay type: cell-based, human; settings: 0.04 and 0.2 mg/mL, supernatant at 2 h and 4 h; FIG. 9
Description: Still further, it is envisioned that lactoferrin related peptides stimulate production of MIP-3alpha from hepatocytes. Lactoferrin is known to contribute to the defense systems of the body through its anti-microbial properties. […] The innate immune system is the ‘first line of defense’ of the body against hostile environments and comprise of a variety of effector and cellular mechanisms. This innate immune response is initially likely mediated by the ‘detection system’ of receptors known to be present on the surface of the gut epithelial cells, such as pattern recognition receptors, IL-1 receptor and general ‘scavenger’ receptors. These receptors recognize and respond to specific structural features of the presented molecules. As a result, various intracellular signaling pathways may be initiated (e.g., NFκB, Wnt, etc.) that result in the overall orchestration of the cellular response of the body to the prevailing biological situation (e.g., infection). RhLF and peptides derived from rhLF elicit a similar response of human hepatocytes in vitro in terms of producing an important chemokine—namely MIP-3-alpha. It is surmised that some general structural features that are responsible for the biological response to rhLF are retained in peptides that are structurally related to the parent molecule (rhLF).
MIP3-α has been associated with the stimulation of innate immune responses. […]

[3] = test system: hind paw edema; assay: Carrageenan mouse paw edema model of inflammation; assay type: in vivo, ICR derived mice; settings: PO once daily × 5
Method: Test substance LPF-35 at 5 mg/kg and reference agent Aspirin at 100 mg/kg were administered orally once daily for 5 consecutive days to groups of 8 ICR (4 male and 4 female) derived mice weighing 22±2 gms. One hour after 5th dose, right hind paw was injected with carrageenan (0.05 ml of 1% suspension intraplantar). The hind paw edema was measured 4 hours later. Convention: reduction of hind paw edema by 30 percent or more indicates significant acute anti-inflammatory activity. Each animal was fasted overnight before Carrageenan challenge.

[4] = test system: heart allograft; assay: Heart allograft survival model in rats; assay type: in vivo, rats (Wistar Furh recipients, Baffalo donors); settings: FK506 alone, 0.8 mg/kg oral gavage once daily days 0 to +14; n=10
Method: The activity of LPF-35 in combination with FK506 was compared with FK506 alone in a heart allograft survival model in rats. Wistar Furh (WF; RT1) recipients of heart allograft from Baffalo donors (BUF; RT1b) were administered oral LPF-35 (5 mg/kg) plus FK506 (0.8 mg/kg), FK506 alone or placebo. The results are presented as a mean±standard deviation (MST±SD). Significance between groups was calculated using Student T-test with p<0.05 considered as significant. In group # 1 control WF recipients of BUF heart allografts (n=5) were untreated and heart allografts were rejected in an acute fashion within 6.4±0.5 days. In group # 2 WF recipients of BUF heart allografts (n=10) were treated daily once (days 0 to +14) with 0.8 mg/kg FK506 delivered by oral gavage. This protocol was effective in prolonging the survival of heart allografts to a MST of 22.3±6.7 days (p=0.0002). […] In group # 3 WF recipients of BUF heart allografts (n=6) were treated daily once (days 0 to +14) with 0.8 mg/kg FK506 delivered by oral gavage in combination with LPF-35 daily for 14 days. This protocol was effective in prolonging the survival of heart allografts to a MST of 49.5±28 days (p=0.0077). […] An effect of reducing organ transplant rejection is indicative of beneficial effects in GVHD.

[5] = test system: Ascaris suum antigen; assay: Sheep model of allergic asthma; assay type: in vivo; settings: lung resistance and carbachol response, FIG. 5, FIG. 6
Method: Peptides LPF-32 and LPF-35 were both tested in an established sheep model of allergic asthma. […] Allergic sheep previously characterized as dual responders (displaying early and late phases of bronchoconstriction), were administered peptide followed by inhalation challenge with Ascaris suum antigen.
Baseline dose response curves to aerosolized carbachol were obtained in all sheep 1-3 days before the start of dosing. Sheep were dosed with peptide or placebo by nebulization or oral gavage in the inhaled and oral experiments respectively. The sensitized sheep were then challenged with Ascaris suum antigen to produce early and late airway responses, as measured by mean lung resistance (pulmonary flow resistance, RL). Mean lung resistance was measured using tracheal and pleural pressure catheters connected to a differential pressure transducer. […]
To assess airway responsiveness, cumulative dose response curves to carbachol were obtained, as measured by specific lung resistance, or SRL (SRL=RL * thoracic gas volume). […] Airway hypersensitivity (AH) was determined by calculating the cumulative carbachol dose that increased SRL by 400% over the post-saline value by interpolation from the dose response curve. […]

Molecule	MIC GeoMean [1]	further results
RRRRRRSVQWQAVSQPEATKQFQWQRNMRKRRR [LPF-31]	41 µg/mL	–
RRRRRRSVQWQAVSQPIATKQFQWQRNMRKRRR [LPF-33]	28 µg/mL	–
RRRRRRSVQWQAVSQPIATEQFQWQRNMRKRRR [LPF-24]	43 µg/mL and 51 µg/mL	–
RRRRRRSVQWQAVSQPQATGQFQWQRNMRKRRR [LPF-34]	32 µg/mL	–
RRRRRRSVQWAAVSQPIATKAFQWQRNMRKRRR [LPF-36]	24 µg/mL	–
RRRRRRSVQWQAVSQPIATIQFQWQRNMRKRRR [LPF-35]	15 µg/mL	expression of MIP3-α in Hepatocytes [2]: stimulates
CC(=O)Oc1ccccc1C(=O)O [Aspirin]	–	Paw Volume LP ([3]; LP, average n=8): 12.38 ×0.01 ml; Paw Volume Diff. ([3]; RP minus LP): 5.00 ×0.01 ml; % Inhibition ([3]; hind paw edema vs vehicle): 32%; Paw Volume RP ([3]; right hind paw injected with carrageenan, 4 hours later, average n=8): 17.38 ×0.01 ml
RRRRRRSVQWAAVSQPIATEAFQWQRNMRKRRR [LPF-25]	66 µg/mL	–
C=CC[C@@H]1/C=C(\C)C[C@H](C)C[C@H](OC)[C@H]2O[C@@](O)(C(=O)C(=O)N3CCCC[C@H]3C(=O)O[C@H](/C(C)=C/[C@@H]3CC[C@@H](O)[C@H](OC)C3)[C@H](C)[C@@H](O)CC1=O)[C@H](C)C[C@@H]2OC [FK506]	–	survival of heart allografts, MST ± SD [4]: 22.3±6.7 days
RRRRRRSVQWQAVSQPGATKQFQWQRNMRKRRR [LPF-32]	25 µg/mL	late phase inflammation and airway hyperresponsiveness [5]: substantially inhibit
